Laboratory results published in patent US9173842B2, “Stable pharmaceutical composition comprising a hydrosoluble vinflunine salt” (PIERRE FABRE MEDICAMENT, priority 2007, dated 2015).

Test: Stability tests at 5° C. and 25° C. under sealed conditions after 3 months (impurity content)
Assay type: physicochemical
Conditions: sealed packaging, % of the total weight of the composition
Method: The composition in the forms of capsule A and B were packaged in sealed packers. They were stored for 3 months at 5° C. at an external humidity level of 20%, or at 25° C. at an external humidity level of 60%.
The weight content in impurities (in % of the total weight of the composition) was assayed immediately […], then after 3 months of storage. The difference between these two percentages gives the change in impurity content.
It is compared to that obtained for freeze-dried vinflunine ditartrate stored under the same conditions.

Q: What does the source list for vinflunine ditartrate?
A: Changes in impurity levels at 5° C. (3 months at 5° C., external humidity 20%): +0.8%; Changes in impurity levels at 25° C. (3 months at 25° C., external humidity 60%): +1.9%
